Data published in patent US20250163057A1, “DCN-1 MODULATING COMPOUNDS AND METHODS OF USE THEREOF” (Cellarity, Inc., priority 2023, published 2025).
pIC50: −log10 of the molar value. Where two headings read alike, the source gives them in different places.

Experiments:
DCN1 protein = DCN1 protein (Homo sapiens (Human), UniProt Q96GG9); assay: Intact Protein MS Analysis with the RapidFire-TOF System (covalent adduct formation); type: binding; conditions: MS Emax; 400 nM DCN1, 3 hours at room temperature
Summary of the method: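 Tag-cleaved human DCN1 (400 nM) expressed in E. coli, in 25 mM Tris-HCl, 200 mM NaCl, 1 mM DTT, was incubated with 11 compound concentrations for 3 h at room temperature and quenched with 0.2% formic acid. Intact-protein Q-TOF MS with deconvolution detected the compound adduct mass.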

[1] = molecular target: DCN1 (DCUND1) protein PONY domain (Homo sapiens (Human), UniProt Q96GG9); assay: TR-FRET assay, DCN1 binding with FAM-labeled probe; conditions: for IC50: TR FRET IC50 1 hr (nM)
Summary of the method: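 Biotinylated DCN1 PONY domain, labeled with streptavidin-Tb, was competed against a FAM-labeled non-covalent DCN1 inhibitor probe in buffer with TritonX and 200 mM NaCl. Conditions were 5 nM DCN1 with 20 nM FAM-probe, or 0.31 nM DCN1 with 100 nM FAM-plus 800 nM unlabeled probe. The TR-FRET ratio was read at 1, 5 and 24 h (0.1% DMSO).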

[2] = tested on: Cullin-3 (CUL3) neddylation; assay: AlphaLISA assay for Cullin-3 (CUL3) neddylation in TF 1 cells; type: cell-based; conditions: Homo sapiens, TF-1, 3 h, 3 hours treatment
Summary of the method: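 TF 1 cells in unsupplemented IMDM treated with compound concentrations for 3 h, then lysed. CUL3 neddylation detected by AlphaLISA (biotinylated anti-NEDD8, anti-CUL3 acceptor beads overnight, streptavidin donor beads 1 h); normalized to vehicle (0%) and 1 μM DI-1548 (100%), IC50 from Hill fits.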

[3] = 24 hr after treatment with compound, read-out: TR FRET IC50 24 hr
[4] = 1 hr after treatment with compound
[5] = read-out: TR FRET IC50 1 hr, 1 hr after treatment with compound

Chain of DCN1 protein (Q96GG9 whole entry): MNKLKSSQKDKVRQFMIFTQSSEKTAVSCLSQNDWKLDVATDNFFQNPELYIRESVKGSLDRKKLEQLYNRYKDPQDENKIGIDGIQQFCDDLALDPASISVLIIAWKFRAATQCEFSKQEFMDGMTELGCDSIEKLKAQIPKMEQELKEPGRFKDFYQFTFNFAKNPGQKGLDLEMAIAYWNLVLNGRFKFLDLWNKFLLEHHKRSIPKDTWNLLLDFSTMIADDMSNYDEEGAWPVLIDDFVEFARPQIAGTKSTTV
Chain of DCN1 (DCUND1) protein PONY domain (Q96GG9 60-248): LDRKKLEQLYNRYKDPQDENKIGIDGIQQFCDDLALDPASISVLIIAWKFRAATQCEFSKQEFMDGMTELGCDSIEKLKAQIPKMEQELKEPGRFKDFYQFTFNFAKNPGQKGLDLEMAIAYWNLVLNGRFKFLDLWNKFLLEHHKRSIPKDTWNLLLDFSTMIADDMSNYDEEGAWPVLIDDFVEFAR

Structure (SMILES)	% Adduct Formation (DCN1 protein)	pIC50 [1, 3]	IC50 [1, 4]	pIC50 [2]	pIC50 [1, 5]
CCN1C(=O)[C@@H](NC(=O)c2cccc(C(F)(F)F)c2)[C@@H](c2ccc(F)cc2)c2c(C(=O)N(C)[C@H](C#N)CCO)nn(-c3ccccc3)c21 (relative stereo) [Compound I-301, (4S,5S)—N-[(1S*)-1-cyano-3-hydroxypropyl]-7-ethyl-4-(4-fluorophenyl)-N-methyl-6-oxo-1-phenyl-5-[3-(trifluoromethyl)benzamido]-4H,5H-pyrazolo[3,4-b]pyridine-3-carboxamide]	++ (MS Emax % adduct formation greater than 30.0 and less than or equal to 80.0)	≥ 6.70	≤ 200 nM	≥ 7.00	
CCN1C(=O)[C@@H](NC(=O)c2cccc(C(F)(F)F)c2)[C@@H](c2ccc(F)cc2)c2c(C(=O)N(C)[C@H](C)C#N)nn(-c3ccccc3)c21 (single isomer, unassigned) [Compound I-289, (4S,5S)—N—((R*)-1-cyanoethyl)-7-ethyl-4-(4-fluorophenyl)-N-methyl-6-oxo-1-phenyl-5-(3-(trifluoromethyl)benzamido)-4,5,6,7-tetrahydro-1H-pyrazolo[3,4-b]pyridine-3-carboxamide]	+++ (MS Emax % adduct formation greater than 80.0 and less than or equal to 100.0)	≥ 6.70	≤ 200 nM	≥ 7.00	
CCN1C(=O)[C@@H](NC(=O)c2cccc(C(F)(F)F)c2)[C@@H](c2ccc(F)cc2)c2c(C(=O)N(C)[C@@H](C#N)C3COC3)nn(-c3ccccc3)c21 (single isomer, unassigned) [Compound I-291]	+++ (MS Emax % adduct formation greater than 80.0 and less than or equal to 100.0)	≥ 6.70		≥ 7.00	≥ 6.70
CCN1C(=O)[C@H](NC(=O)c2cccc(C(F)(F)F)c2)[C@H](c2ccc(F)cc2)c2c(C(=O)N3CCOCC3C#N)nn(-c3ccccc3)c21 (single isomer, unassigned) [Compound I-296]	++ (MS Emax % adduct formation greater than 30.0 and less than or equal to 80.0)	≥ 6.70	1000 to 3000 nM	≥ 7.00	
CCN1C(=O)[C@@H](NC(=O)c2cccc(C(F)(F)F)c2)[C@@H](c2ccc(F)cc2)c2c(C(=O)N(C)[C@@H](C)C#N)nn(-c3ccccc3)c21 (single isomer, unassigned) [Compound I-300, (4S,5S)—N—((S*)-1-cyanoethyl)-7-ethyl-4-(4-fluorophenyl)-N-methyl-6-oxo-1-phenyl-5-(3-(trifluoromethyl)benzamido)-4,5,6,7-tetrahydro-1H-pyrazolo[3,4-b]pyridine-3-carboxamide]	+++ (MS Emax % adduct formation greater than 80.0 and less than or equal to 100.0)	≥ 6.70	≤ 200 nM	≥ 7.00	
CCN1C(=O)[C@@H](NC(=O)c2cccc(C(F)(F)F)c2)[C@@H](c2ccc(F)cc2)c2c(C(=O)N(C)[C@@H](C#N)CCN(C)C3COC3)nn(-c3ccccc3)c21 (single isomer, unassigned) [Compound I-311]	+ (MS Emax % adduct formation greater than or equal to 0.0 and less than or equal to 30.0)	≥ 6.70		≥ 7.00	≥ 6.70
CCN(CC#N)C(=O)c1nn(-c2ccccc2)c2c1[C@H](c1ccc(F)cc1)[C@H](NC(=O)c1cccc(C(F)(F)F)c1)C(=O)N2CC (stereo in doubt) [Compound I-283]	+++ (MS Emax % adduct formation greater than 80.0 and less than or equal to 100.0)	≥ 6.70		≥ 7.00	≥ 6.70
CCN1C(=O)[C@@H](NC(=O)c2cccc(C(F)(F)F)c2)[C@@H](c2ccc(F)cc2)c2c(C(=O)N(CC#N)C3CC3)nn(-c3ccccc3)c21 (stereo in doubt) [Compound I-284]	+++ (MS Emax % adduct formation greater than 80.0 and less than or equal to 100.0)	≥ 6.70		≥ 7.00	≥ 6.70
CCN1C(=O)[C@@H](NC(=O)c2cccc(C(F)(F)F)c2)[C@@H](c2ccc(F)cc2)c2c(C(=O)N(CC#N)CCO)nn(-c3ccccc3)c21 (stereo in doubt) [Compound I-286]	+ (MS Emax % adduct formation greater than or equal to 0.0 and less than or equal to 30.0)	≥ 6.70		≥ 7.00	≥ 6.70
CCN1C(=O)[C@@H](NC(=O)c2cccc(C(F)(F)F)c2)[C@@H](c2ccc(F)cc2)c2c(C(=O)N(CC#N)CC(=O)OC)nn(-c3ccccc3)c21 (stereo in doubt) [Compound I-287]	+++ (MS Emax % adduct formation greater than 80.0 and less than or equal to 100.0)	≥ 6.70		≥ 7.00	≥ 6.70
CCN1C(=O)[C@@H](NC(=O)c2cccc(C(F)(F)F)c2)[C@@H](c2ccc(F)cc2)c2c(C(=O)N(CC#N)CCC(=O)OC)nn(-c3ccccc3)c21 (stereo in doubt) [Compound I-288]	+++ (MS Emax % adduct formation greater than 80.0 and less than or equal to 100.0)	≥ 6.70		≥ 7.00	≥ 6.70
CCN1C(=O)[C@H](NC(=O)c2cccc(C(F)(F)F)c2)[C@H](c2ccc(F)cc2)c2c(C(=O)N3CCC[C@H]3C#N)nn(-c3cccc(OCCCN4CC5(COC5)C4)c3)c21 (stereo in doubt) [Compound I-293]	+++ (MS Emax % adduct formation greater than 80.0 and less than or equal to 100.0)	≥ 6.70	≤ 200 nM	≥ 7.00	
C=C(CN1CC2(COC2)C1)C(=O)NCc1nn(-c2ccccc2)c2c1[C@H](c1ccc(F)cc1)[C@H](NC(=O)c1cccc(C(F)(F)F)c1)C(=O)N2CC [Compound I-138]	+++ (MS Emax % adduct formation greater than 80.0 and less than or equal to 100.0)	≥ 6.70		≥ 7.00	≥ 6.70
C=C(CN1CC2(COC2)C1)C(=O)NCc1nn(-c2ccccc2)c2c1[C@H](c1ccc(F)cc1)[C@@H](NC(=O)c1cccc(C(F)(F)F)c1)C(=O)N2CC [Compound I-149]	+++ (MS Emax % adduct formation greater than 80.0 and less than or equal to 100.0)	≥ 6.70		≥ 7.00	≥ 6.70
CCN1C(=O)[C@@H](NC(=O)c2cccc(C(F)(F)F)c2)[C@@H](c2ccc(F)cc2)c2c(C(=O)N3CC[C@H]3C#N)nn(-c3ccccc3)c21 [Compound I-275]	++ (MS Emax % adduct formation greater than 30.0 and less than or equal to 80.0)	≥ 6.70		≥ 7.00	≥ 6.70
CCN1C(=O)[C@@H](NC(=O)c2cccc(C(F)(F)F)c2)[C@@H](c2ccc(F)cc2)c2c(C(=O)N3CCOC[C@H]3C#N)nn(-c3ccccc3)c21 [Compound I-276]	+++ (MS Emax % adduct formation greater than 80.0 and less than or equal to 100.0)	≥ 6.70	200 to 1000 nM	≥ 7.00	
CCN1C(=O)[C@@H](NC(=O)c2cccc(C(F)(F)F)c2)[C@@H](c2ccc(F)cc2)c2c([C@@H](CF)NC#N)nn(-c3ccccc3)c21 [Compound I-279]	+++ (MS Emax % adduct formation greater than 80.0 and less than or equal to 100.0)	≥ 6.70		≥ 7.00	≥ 6.70
